Results published in ChEMBL document CHEMBL1201862, “PubChem BioAssay data set” (2004).
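Dose response: 5 concentrations. Exposure: 48 h. Format: 96-well plates. Endpoint: linear interpolation; highest concentration if not reached. Here, GI50 denotes the concentration required for 50% inhibition of growth.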 Calls of active or inactive are those of the source. No stated cut-off is given here; in the data, active = GI50 up to about 1.1 µM and inactive = higher.

Legend:
Assay in all cases: NCI anticancer screen, dose series, 48 h
[1] = test system: OVCAR-5
[2] = test system: SW-620
[3] = test system: SK-MEL-28
[4] = test system: HCT-15
[5] = test system: HCT-116
[6] = test system: CAKI-1
[7] = test system: OVCAR-4
[8] = test system: DU-145
[9] = test system: PC-3
[10] = test system: HOP-92
[11] = test system: COLO 205
[12] = test system: 786-0
[13] = test system: NCI-H460
[14] = test system: K562
[15] = test system: ACHN
[16] = test system: SNB-75
[17] = test system: OVCAR-8
[18] = test system: U-251
[19] = test system: HOP-62
[20] = test system: BT-549
[21] = test system: TK-10
[22] = test system: A498
[23] = test system: NCI-H522
[24] = test system: NCI-H23
[25] = test system: M14
[26] = test system: IGROV-1
[27] = test system: T47D
[28] = test system: SF-539
[29] = test system: HT-29
[30] = test system: SK-OV-3
[31] = test system: EKVX
[32] = test system: A549
[33] = test system: SK-MEL-5
[34] = test system: Hs-578T
[35] = test system: SNB-19
[36] = test system: UO-31
[37] = test system: MCF7
[38] = test system: KM12
[39] = test system: UACC-257
[40] = test system: CCRF-CEM
[41] = test system: HCC 2998
[42] = test system: SN12C
[43] = test system: SR
[44] = test system: NCI/ADR-RES
[45] = test system: SF-268
[46] = test system: SF-295
[47] = test system: RPMI-8226
[48] = test system: OVCAR-3
[49] = test system: SK-MEL-2
[50] = test system: MOLT-4
[51] = test system: UACC-62
[52] = test system: MDA-MB-231
[53] = test system: MDA-N
[54] = test system: MDA-MB-435
[55] = test system: Malme-3M
[56] = test system: RXF 393
[57] = test system: HL-60
[58] = test system: LOX IMVI
[59] = test system: NCI-H226

Cc1cc2nc(C=C(C(F)(F)F)C(F)(F)F)oc2cc1C
GI50 [1]: 3.04 µM (inactive)
GI50 [2]: 1.73 µM (inactive)
GI50 [3]: > 10 µM (inactive)
GI50 [4]: 3.37 µM
GI50 [5]: 1.38 µM (inactive)
GI50 [6]: 2.42 µM (inactive)
GI50 [7]: 3.18 µM (inactive)
GI50 [8]: 5.64 µM (inactive)
GI50 [9]: 2.47 µM (inactive)
GI50 [10]: > 10 µM (inactive)
GI50 [11]: 0.199 µM (active)
GI50 [12]: 1.96 µM (inactive)
GI50 [13]: 3.92 µM (inactive)
GI50 [14]: 2.25 µM (inactive)
GI50 [15]: 5.06 µM (inactive)
GI50 [16]: 4.55 µM (inactive)
GI50 [17]: 2.46 µM (inactive)
GI50 [18]: 3.33 µM (inactive)
GI50 [19]: 3.83 µM (inactive)
GI50 [20]: 2.67 µM (inactive)
GI50 [21]: 2.45 µM (inactive)
GI50 [22]: > 10 µM (inactive)
GI50 [23]: 3.12 µM (inactive)
GI50 [24]: 2.49 µM (inactive)
GI50 [25]: 2.51 µM (inactive)
GI50 [26]: 2.91 µM (inactive)
GI50 [27]: 2.94 µM (inactive)
GI50 [28]: 2.88 µM (inactive)
GI50 [29]: 3.04 µM (inactive)
GI50 [30]: > 10 µM (inactive)
GI50 [31]: 3.15 µM (inactive)
GI50 [32]: 5.12 µM (inactive)
GI50 [33]: > 10 µM (inactive)
GI50 [34]: 3.37 µM (inactive)
GI50 [35]: 3.45 µM (inactive)
GI50 [36]: 4.11 µM (inactive)
GI50 [37]: 0.472 µM (active)
GI50 [38]: > 10 µM (inactive)
GI50 [39]: > 10 µM (inactive)
GI50 [40]: 1.06 µM (active)
GI50 [41]: 3.08 µM (inactive)
GI50 [42]: 2.41 µM (inactive)
GI50 [43]: 2.22 µM (inactive)
GI50 [44]: 2.51 µM (inactive)
GI50 [45]: 3.42 µM (inactive)
GI50 [46]: > 10 µM (inactive)
GI50 [47]: 1.55 µM (inactive)
GI50 [48]: 1.95 µM (inactive)
GI50 [49]: > 10 µM (inactive)
GI50 [50]: 1.85 µM (inactive)
GI50 [51]: 3.32 µM (inactive)
GI50 [52]: 2.88 µM (inactive)
GI50 [53]: > 10 µM (inactive)
GI50 [54]: 2.14 µM (inactive)
GI50 [55]: 1.97 µM (inactive)
GI50 [56]: 2.49 µM (inactive)
GI50 [57]: 2.03 µM (inactive)
GI50 [58]: 2.09 µM (inactive)

COc1cccc(CCn2c(N)c(C(=O)O)c3ccc([N+](=O)[O-])cc3c2=O)c1
GI50 [1]: 52.2 µM (inactive)
GI50 [2]: > 100 µM (inactive)
GI50 [3]: > 100 µM (inactive)
GI50 [4]: 31.8 µM
GI50 [5]: 25.1 µM (inactive)
GI50 [6]: 43.5 µM (inactive)
GI50 [7]: 54 µM (inactive)
GI50 [8]: 40.2 µM (inactive)
GI50 [9]: 29.2 µM (inactive)
GI50 [11]: 20.7 µM (inactive)
GI50 [12]: 31.1 µM (inactive)
GI50 [13]: 32.8 µM (inactive)
GI50 [14]: 67.8 µM (inactive)
GI50 [15]: 33.7 µM (inactive)
GI50 [16]: 24.9 µM (inactive)
GI50 [17]: 36.6 µM (inactive)
GI50 [18]: 25.9 µM (inactive)
GI50 [19]: 37.2 µM (inactive)
GI50 [20]: 25.4 µM (inactive)
GI50 [22]: 40.5 µM (inactive)
GI50 [23]: 28.3 µM (inactive)
GI50 [24]: 19.5 µM (inactive)
GI50 [25]: 45.3 µM (inactive)
GI50 [26]: 36.7 µM (inactive)
GI50 [27]: 29.3 µM (inactive)
GI50 [29]: 38.5 µM (inactive)
GI50 [30]: 35.6 µM (inactive)
GI50 [31]: 51.5 µM (inactive)
GI50 [32]: 27.8 µM (inactive)
GI50 [33]: 24 µM (inactive)
GI50 [34]: 33.2 µM (inactive)
GI50 [35]: 39.1 µM (inactive)
GI50 [36]: 31.2 µM (inactive)
GI50 [59]: 44 µM (inactive)
GI50 [37]: 20.1 µM (inactive)
GI50 [40]: > 100 µM (inactive)
GI50 [41]: 53.2 µM (inactive)
GI50 [42]: 21.8 µM (inactive)
GI50 [43]: 40.1 µM (inactive)
GI50 [44]: 28.9 µM (inactive)
GI50 [45]: 37.7 µM (inactive)
GI50 [46]: 38.1 µM (inactive)
GI50 [47]: 22.9 µM (inactive)
GI50 [48]: 29.4 µM (inactive)
GI50 [49]: 22.6 µM (inactive)
GI50 [50]: 54.1 µM (inactive)
GI50 [51]: 52.4 µM (inactive)
GI50 [52]: 16.9 µM (inactive)
GI50 [53]: 30.3 µM (inactive)
GI50 [54]: 38.3 µM (inactive)
GI50 [55]: 37.3 µM (inactive)
GI50 [56]: 28.7 µM (inactive)
GI50 [57]: > 100 µM (inactive)
GI50 [58]: 35.2 µM (inactive)

CCOC(=O)N/N=C(/N)c1cccc([N+](=O)[O-])c1
GI50 [1]: > 100 µM (inactive)
GI50 [2]: > 100 µM (inactive)
GI50 [3]: > 100 µM (inactive)
GI50 [4]: > 100 µM
GI50 [5]: > 100 µM (inactive)
GI50 [6]: > 100 µM (inactive)
GI50 [7]: > 100 µM (inactive)
GI50 [8]: > 100 µM (inactive)
GI50 [9]: > 100 µM (inactive)
GI50 [10]: > 100 µM (inactive)
GI50 [11]: > 100 µM (inactive)
GI50 [12]: > 100 µM (inactive)
GI50 [13]: > 100 µM (inactive)
GI50 [14]: > 100 µM (inactive)
GI50 [15]: > 100 µM (inactive)
GI50 [16]: 80.2 µM (inactive)
GI50 [17]: > 100 µM (inactive)
GI50 [18]: > 100 µM (inactive)
GI50 [19]: > 100 µM (inactive)
GI50 [20]: > 100 µM (inactive)
GI50 [21]: > 100 µM (inactive)
GI50 [22]: > 100 µM (inactive)
GI50 [23]: > 100 µM (inactive)
GI50 [24]: > 100 µM (inactive)
GI50 [25]: > 100 µM (inactive)
GI50 [26]: > 100 µM (inactive)
GI50 [27]: > 100 µM (inactive)
GI50 [28]: > 100 µM (inactive)
GI50 [29]: > 100 µM (inactive)
GI50 [30]: > 100 µM (inactive)
GI50 [31]: > 100 µM (inactive)
GI50 [32]: > 100 µM (inactive)
GI50 [33]: > 100 µM (inactive)
GI50 [34]: > 100 µM (inactive)
GI50 [35]: > 100 µM (inactive)
GI50 [36]: > 100 µM (inactive)
GI50 [37]: > 100 µM (inactive)
GI50 [38]: > 100 µM (inactive)
GI50 [39]: > 100 µM (inactive)
GI50 [40]: > 100 µM (inactive)
GI50 [41]: > 100 µM (inactive)
GI50 [42]: > 100 µM (inactive)
GI50 [43]: > 100 µM (inactive)
GI50 [44]: > 100 µM (inactive)
GI50 [45]: > 100 µM (inactive)
GI50 [46]: > 100 µM (inactive)
GI50 [48]: > 100 µM (inactive)
GI50 [49]: > 100 µM (inactive)
GI50 [50]: > 100 µM (inactive)
GI50 [51]: > 100 µM (inactive)
GI50 [52]: > 100 µM (inactive)
GI50 [53]: > 100 µM (inactive)
GI50 [54]: > 100 µM (inactive)
GI50 [55]: > 100 µM (inactive)
GI50 [56]: > 100 µM (inactive)
GI50 [57]: > 100 µM (inactive)
GI50 [58]: > 100 µM (inactive)
